Measurements from patent publication US20090187040A1, “FENOFIBRIC ACID POLYMORPHS; METHODS OF MAKING; AND METHODS OF USE THEREOF” (priority 2008, published 2009).
Blank lines part the entries; values can stand above or below the compound they belong to.

Columns and labels:
[1] = Fenofibric acid polymorph slurry study (form by XRPD or Raman); format: physicochemical; details: for relative thermodynamic stability of the enantiotropically related forms: Form A versus Form B, by temperature
Description: Approximately 30-45 mg in combination of Form B and Form A are weighed to an 8-mL vial outfitted with a stir bar. Solvent (water, toluene, and 1:1 water/IPA, DCM or MeCN) in the amount of 1 mL is added. The samples are sealed with a Teflon cap and parafilm and then placed on a magnetic stirrer at room temperature or 45° C. An aliquot is then sampled after 7 days and 21 days for determination of form by XRPD or Raman (Table 7).

[2] = Grinding study of Form B in a ball mill (XRPD); format: physicochemical; details: ground for 30 seconds using a ball mill
Description: Approximately 50 mg of Form B is ground for 30 seconds using a ball mill and the resulting material is analyzed by XRPD.

[3] = cited from earlier work
Solubility in water = format: physicochemical; details: noted in lyophilization example

Form, 7 Days (XRPD/Raman) ([1]; slurry in DCM 1 mL, 45 °C): A + B
Form, 21 Days (XRPD/Raman) ([1]; slurry in DCM 1 mL, 45 °C): A + B
form observed after grinding (XRPD) [2]: Form A is observed
SMILES: CC(C)(Oc1ccc(C(=O)c2ccc(Cl)cc2)cc1)C(=O)O [Form B, 2-[4-(4-chlorobenzoyl)phenoxy]-2-methyl-propanoic acid]
relative thermodynamic stability of the enantiotropically related forms [1]: more thermodynamically stable at lower temperatures (e.g., room temperature)

Form, 7 Days (XRPD/Raman) ([1]; slurry in DCM 1 mL, 45 °C): A + B
Form, 21 Days (XRPD/Raman) ([1]; slurry in DCM 1 mL, 45 °C): A + B
Form, 21 Days (XRPD/Raman) ([1]; slurry in Water 1 mL, RT): Diffuse
solubility in water (Solubility in water): limited solubility
SMILES: CC(C)(Oc1ccc(C(=O)c2ccc(Cl)cc2)cc1)C(=O)O [Form A, 2-[4-(4-chlorobenzoyl)phenoxy]-2-methyl-propanoic acid]
relative thermodynamic stability of the enantiotropically related forms [1]: more stable at elevated temperatures (e.g., above about 45° C.)

The remaining lines, values behind:

SMILES: CC(C)(Oc1ccc(C(=O)c2ccc(Cl)cc2)cc1)C(=O)O [Form A + B, 2-[4-(4-chlorobenzoyl)phenoxy]-2-methyl-propanoic acid]
Form, 21 Days (XRPD/Raman) ([1]; slurry in Toluene 1 mL, 45 °C): A + B
Form, 7 Days (XRPD/Raman) ([1]; slurry in Water 1 mL, RT): A + B

SMILES: CC(C)(Oc1ccc(C(=O)c2ccc(Cl)cc2)cc1)C(=O)O [Fenofibric acid, 2-[4-(4-chlorobenzoyl)phenoxy]-2-methyl-propanoic acid]
effect on total cholesterol, LDL cholesterol, apolipoprotein B, total triglycerides and triglyceride rich lipoprotein (VLDL) ([3]; treated patients): produces reductions

SMILES: CC(C)OC(=O)C(C)(C)Oc1ccc(C(=O)c2ccc(Cl)cc2)cc1 [Fenofibrate, 2-[4-(4-chlorobenzoyl)phenoxy]-2-methyl-propanoic acid, 1-methylethyl ester]
effect on high-density lipoprotein (HDL) and apoproteins apoAI and apoAII ([3]; treatment with fenofibrate): results in increases
